According to ChEMBL document CHEMBL1153116, “Bio-transformation of artemisinin using soil microbe: Direct C-acetoxylation of artemisinin at C-9 by Penicillium simplissimum” (2010):

Experiments:
Type in all cases: functional
[1] = test system: SW-620; test: Antitumor activity against human SW620 cells at 50 uM after 48 hrs by Sulforhodamine assay; conditions: SW-620, 48 h, read-out: GI
[2] = test system: IGROV-1; test: Antitumor activity against human IGROV1 cells at 50 uM after 48 hrs by Sulforhodamine assay; conditions: IGROV-1, 48 h, read-out: GI
[3] = test system: IMR-32; test: Antitumor activity against human IMR32 cells at 50 uM after 48 hrs by Sulforhodamine assay; conditions: IMR-32, 48 h, read-out: GI
[4] = test system: A549; test: Antitumor activity against human A549 cells at 50 uM after 48 hrs by Sulforhodamine assay; conditions: A549, 48 h, read-out: GI
[5] = test system: HCT-15; test: Antitumor activity against human HCT15 cells at 50 uM after 48 hrs by Sulforhodamine assay; conditions: HCT-15, 48 h, read-out: GI
[6] = test system: IMR-32; test: Antitumor activity against human IMR32 cells at 1 uM after 48 hrs by Sulforhodamine assay; conditions: IMR-32, 48 h, read-out: GI
[7] = test system: HCT-15; test: Antitumor activity against human HCT15 cells at 20 uM after 48 hrs by Sulforhodamine assay; conditions: HCT-15, 48 h, read-out: GI
[8] = test system: SW-620; test: Antitumor activity against human SW620 cells at 20 uM after 48 hrs by Sulforhodamine assay; conditions: SW-620, 48 h, read-out: GI
[9] = test system: A549; test: Antitumor activity against human A549 cells at 10 uM after 48 hrs by Sulforhodamine assay; conditions: A549, 48 h, read-out: GI
[10] = test system: IGROV-1; test: Antitumor activity against human IGROV1 cells at 10 uM after 48 hrs by Sulforhodamine assay; conditions: IGROV-1, 48 h, read-out: GI

Row | Structure (SMILES) | inhibition of growth at 50 µM [1] | inhibition of growth at 50 µM [2] | inhibition of growth at 50 µM [3] | inhibition of growth at 50 µM [4] | inhibition of growth at 50 µM [5] | also measured
1 | C[C@@H]1CC[C@H]2[C@@H](C)C(=O)O[C@@H]3O[C@@]4(C)OO[C@@]32[C@H]1C[C@H]4O | 0% | 3% | 20% | 18% | 28% | 
2 | CC(=O)O[C@H]1C[C@H]2[C@H](C)CC[C@H]3[C@@H](C)C(=O)O[C@@H]4O[C@@]1(C)OO[C@]423 | 0% | 10% | 31% | 28% | 32% | 
3 | C[C@@H]1CC[C@H]2[C@@H](C)C(=O)O[C@@H]3O[C@@]4(C)CC[C@@H]1[C@]32OO4 [ARTEMISININ] | 35% | 26% | 23% | 29% | 31% | 
4 | COc1cccc2c1C(=O)c1c(O)c3c(c(O)c1C2=O)C[C@@](O)(C(=O)CO)C[C@@H]3O[C@H]1C[C@H](N)[C@H](O)[C@H](C)O1 [DOXORUBICIN] |  |  |  |  |  | inhibition of growth at 1 µM [6]: 72%
5 | O=c1[nH]cc(F)c(=O)[nH]1 [FLUOROURACIL] |  |  |  |  |  | inhibition of growth at 20 µM [7]: 49%; inhibition of growth at 20 µM [8]: 54%
6 | CC(=O)O[C@H]1C(=O)[C@@]2(C)[C@H]([C@H](OC(=O)c3ccccc3)[C@]3(O)C[C@H](OC(=O)[C@H](O)[C@@H](NC(=O)c4ccccc4)c4ccccc4)C(C)=C1C3(C)C)[C@]1(OC(C)=O)CO[C@@H]1C[C@@H]2O [PACLITAXEL] |  |  |  |  |  | inhibition of growth at 10 µM [9]: 52%; inhibition of growth at 10 µM [10]: 56%
